{"source": "patent US20050033056A1", "about": "“Hydroxylated indole derivatives and uses thereof” (priority 2001, published 2005)", "key": {"[1]": {"target": "T1, cDNA-expressed recombinant CYP2D6 (Homo sapiens, UniProt P10635)", "T1 construct": "purchased Gentest Corp. (Woburn, Mass.); host or cells: insect cells (microsomal preparation)", "T1 sequence (P10635 whole entry)": "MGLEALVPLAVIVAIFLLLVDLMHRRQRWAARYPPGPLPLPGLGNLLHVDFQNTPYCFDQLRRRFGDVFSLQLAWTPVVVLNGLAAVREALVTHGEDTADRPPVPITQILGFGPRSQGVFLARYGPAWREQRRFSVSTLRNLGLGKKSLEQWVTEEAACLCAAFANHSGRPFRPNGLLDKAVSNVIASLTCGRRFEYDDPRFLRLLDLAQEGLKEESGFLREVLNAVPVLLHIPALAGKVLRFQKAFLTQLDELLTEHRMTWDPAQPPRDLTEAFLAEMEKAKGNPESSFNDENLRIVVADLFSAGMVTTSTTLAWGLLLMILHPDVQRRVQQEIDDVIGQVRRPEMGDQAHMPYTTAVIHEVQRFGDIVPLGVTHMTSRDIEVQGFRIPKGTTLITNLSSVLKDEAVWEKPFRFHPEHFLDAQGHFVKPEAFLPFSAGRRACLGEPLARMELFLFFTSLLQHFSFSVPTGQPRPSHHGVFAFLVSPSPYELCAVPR", "assay": "Apparent Ki with recombinant CYP2D6 (bufuralol 1'-hydroxylation; Dixon plots, SNLR)", "format": "in vitro ADME", "settings": "for Ki: recombinant CYP2D6", "description": "If inhibition was detected, the inhibitory potency was determined using recombinant CYPs. Compound 1 appeared to inhibit the activities of CYP2D6 and CYP2C19. Therefore, three concentrations of S-mephenyloin (30, 80, and 200 μM) and bufuralol (5, 10, and 40 μM), and a range of concentrations (0-200 μM) of Compound 1 were used for the construction of Dixon plots and simultaneously nonlinear regression (SNLR) analyses were performed. The incubation conditions and sample preparations were the same as previously described.\n3. CYP2D6-mediated bufuralol 1′-hydroxylation (Boobis et al., Bioch. Pharmacol. 34:65-71, 1985): The HPLC system was interfaced with a SCIEX API2000 triple quadrupole mass spectrometer (PE Biosystem, Foster City, Calif.). A Sulpelco Discovery C18 column (150×2.1 mm) and isocratic mobile phase was applied. The mobile phase, 10 mM ammonium acetate-acetonitrile/60:40, was run at 0.2 mL/minute. The operation of the LC/MS/MS was controlled by use of software, MacChrom (Version 1.6). The MS/MS was operated at positive ESI with 5.5 kV ionization potential and 500° C. ion source temperature. Multiple reaction monitoring (MRM) was applied for the quantification. The MRM transition ions were m/z 278→186 for 1′-hydroxybufuralol, and m/z 266→234 for the internal standard (1S) albendazole.\nData were acquired and analyzed by ChemStation (Version 6.03, Hewlett Packard, Waldbronn, Germany) for 6-, 7-, and 10-hydroxywarfarin and 6-hydroxychlorzoxazone, and MacQuan (Version 1.6, PE Biosystem, Foster City, Calif.) for 1′-hydroxybufuralol and 4′-hydroxymephenytoin. Quantification was based on peak area ratios of metabolites over the respective IS against the respective concentration of the metabolites. The standard curves were generated by linear regression with (6-, 7-, and 10-hydroxywarfarin, 1′-hydroxybufuralol, and 4′-hydroxymephenytoin) or without (6-hydroxychlorzoxazone) a weighting factor (1/x^2). The metabolic rates were determined using Excel (Microsoft Office 97, Microsoft Corporation, Redmond, Wash.) or SigmaPlot (Version 6.00, SPSS Inc. Chicago, Ill.). […]"}, "major CYP expression": {"test_system": "major CYP expression", "assay": "CYP induction in primary hepatocyte cultures (summary statement, major CYPs)", "format": "cell-based, human", "settings": "72 hour exposure to 10 or 50 μM; primary hepatocyte cultures from three subjects", "description": "Upon receiving a primary culture of human hepatocytes in 6-well plates, the culture medium containing streptomycin/penicillin was refreshed (2 ml/well). […] Compound 1 stock solution was added to the culture medium at a 1:400 ratio (v/v). The culture medium and testing compounds were replenished every 24 hours.\nAt the end of the treatment, the cells were harvested into 1 mL of phosphate-buffered saline (PBS) after washing twice. The cells were precipitated by centrifugation, and were resuspended in PBS (approximately 50 μL). The sample preparation, after mixing with […] of Laemmli buffer (62.5 mM Tris-HCl containing 2% SDS, 25% glycerol, and 0.01% bromophenol, pH 6.8) and being rocked for 2-4 hours, was mixed with 10 μL of 2-mercaptoethanol, and heated at 90° C. for 10 minutes before electrophoresis.\nProteins were resolved in a 12% SDS-PAGE gel using a mini gel apparatus at a constant voltage ([…]) for 70-80 minutes, and transferred onto a polyvinylidene difluoride (PVDF) membrane using a membrane-transferring unit at a constant voltage ([…]) for 60 minutes. The membrane was blocked by 5% non-fat dried milk (NFDM) blotting buffer (PBS containing 0.05% Tween 20) at 4° C. overnight. […] CYP proteins were detected by […] using an X-ray developer."}}, "note": "Entries after “also recorded” stand apart in the source; their conditions may differ. Like-named read-outs stand apart in the source and are kept apart here."}
{"smiles": "CNC(=O)Cc1ccc2ccn(C3CCN(CCc4ccccc4F)CC3)c2c1", "note": "[Compound 1, N-methyl-[1-[1-(2-fluorophenethyl)piperidine-4-yl]-1H-indol-6-yl] acetamide]", "values": [{"measurement": "type of inhibition of CYP2D6", "setting": "[1]; Dixon plots and SNLR analyses", "result": "competitive inhibitor; also recorded: primarily, if not fully, competitive"}, {"measurement": "Ki", "setting": "[1]; Dixon plots, bufuralol 5, 10, 40 μM, read-out: apparent Ki, CYP2D6, estimated by Dixon plots", "result": "~20", "unit": "µM"}, {"measurement": "Ki", "setting": "[1]; SNLR, competitive inhibition model, read-out: apparent Ki, CYP2D6 inhibition, determined by SNLR", "result": 15, "unit": "µM"}, {"measurement": "Induction of major CYP expression (immunochemical detection)", "setting": "major CYP expression", "result": "not detected"}]}
